Numbers after ± are expanded uncertainties.
Test: xn = mol fraction of the nth substance listed
Settings: Liquid, Bellows volumetry

CCCC [butane] + CCC
mass density [kg/m3]
Settings	360 K	380 K	400 K	420 K	440 K
5000 kPa, x2 = 0.2729	–	–	398.7 ± 0.73	–	–
5000 kPa, x2 = 0.5021	–	415.53 ± 0.76	–	–	–
10000 kPa, x2 = 0.2729	–	–	441.29 ± 0.8	–	365.44 ± 0.66
10000 kPa, x2 = 0.5021	–	449.59 ± 0.81	415.12 ± 0.76	374.84 ± 0.69	–
10000 kPa, x2 = 0.7308	–	–	383.18 ± 0.7	–	–
20000 kPa, x2 = 0.2729	–	–	481.03 ± 0.87	–	435.74 ± 0.79
20000 kPa, x2 = 0.5021	507.83 ± 0.92	485.35 ± 0.88	462.03 ± 0.84	438.42 ± 0.79	414.16 ± 0.75
20000 kPa, x2 = 0.7308	488.73 ± 0.88	–	440.67 ± 0.8	–	389.82 ± 0.71
30000 kPa, x2 = 0.2729	542.33 ± 0.98	–	505.41 ± 0.91	–	469.11 ± 0.85
30000 kPa, x2 = 0.5021	527.21 ± 0.95	508.03 ± 0.92	488.88 ± 0.88	469.92 ± 0.85	451.25 ± 0.82
30000 kPa, x2 = 0.7308	509.86 ± 0.92	–	470.45 ± 0.85	–	431.31 ± 0.78
40000 kPa, x2 = 0.2729	556.62 ± 1	–	523.61 ± 0.94	–	492.08 ± 0.89
40000 kPa, x2 = 0.5021	542.25 ± 0.98	525.24 ± 0.95	508.28 ± 0.92	491.93 ± 0.89	475.9 ± 0.86
40000 kPa, x2 = 0.7308	526.15 ± 0.95	–	491.38 ± 0.89	–	458.02 ± 0.83
50000 kPa, x2 = 0.2729	568.47 ± 1	–	538.25 ± 0.97	–	509.82 ± 0.92
50000 kPa, x2 = 0.5021	554.89 ± 1	539.26 ± 0.97	523.78 ± 0.94	509 ± 0.92	494.74 ± 0.89
50000 kPa, x2 = 0.7308	539.49 ± 0.97	–	507.84 ± 0.92	–	478.11 ± 0.86
60000 kPa, x2 = 0.2729	578.91 ± 1	–	550.71 ± 0.99	–	524.44 ± 0.95
60000 kPa, x2 = 0.5021	565.84 ± 1	551.17 ± 0.99	536.84 ± 0.97	523.17 ± 0.94	510.12 ± 0.92
60000 kPa, x2 = 0.7308	550.83 ± 0.99	–	521.54 ± 0.94	–	494.23 ± 0.89
70000 kPa, x2 = 0.2729	588.2 ± 1.1	–	561.45 ± 1	–	537.02 ± 0.97
70000 kPa, x2 = 0.5021	575.48 ± 1	561.44 ± 1	548.1 ± 0.99	535.32 ± 0.97	523.11 ± 0.94
70000 kPa, x2 = 0.7308	561.04 ± 1	–	533.25 ± 0.96	–	507.76 ± 0.92
80000 kPa, x2 = 0.2729	596.65 ± 1.1	–	571.06 ± 1	–	547.99 ± 0.99
80000 kPa, x2 = 0.5021	584.07 ± 1.1	570.85 ± 1	558.01 ± 1	546.03 ± 0.98	534.41 ± 0.96
80000 kPa, x2 = 0.7308	570.01 ± 1	–	543.56 ± 0.98	–	519.7 ± 0.94
90000 kPa, x2 = 0.2729	604.5 ± 1.1	–	579.66 ± 1	–	557.71 ± 1
90000 kPa, x2 = 0.5021	592.03 ± 1.1	579.23 ± 1	567.04 ± 1	555.52 ± 1	544.56 ± 0.98
90000 kPa, x2 = 0.7308	578.24 ± 1	–	552.92 ± 1	–	530.16 ± 0.96
100000 kPa, x2 = 0.2729	611.65 ± 1.1	–	587.69 ± 1.1	–	566.67 ± 1
100000 kPa, x2 = 0.5021	598.96 ± 1.1	587 ± 1.1	575.06 ± 1	564.2 ± 1	553.96 ± 1
100000 kPa, x2 = 0.7308	585.56 ± 1.1	–	561.28 ± 1	–	539.53 ± 0.97
120000 kPa, x2 = 0.2729	624.31 ± 1.1	–	601.92 ± 1.1	–	582.31 ± 1.1
120000 kPa, x2 = 0.5021	612.34 ± 1.1	600.73 ± 1.1	589.51 ± 1.1	579.48 ± 1	569.97 ± 1
120000 kPa, x2 = 0.7308	599.05 ± 1.1	–	576.29 ± 1	–	556.04 ± 1
140000 kPa, x2 = 0.2729	635.59 ± 1.1	–	614.15 ± 1.1	–	595.88 ± 1.1
140000 kPa, x2 = 0.5021	623.77 ± 1.1	612.71 ± 1.1	602.26 ± 1.1	592.86 ± 1.1	583.79 ± 1.1
140000 kPa, x2 = 0.7308	610.8 ± 1.1	–	589.3 ± 1.1	–	570.27 ± 1
160000 kPa, x2 = 0.2729	645.73 ± 1.2	–	625.33 ± 1.1	–	607.79 ± 1.1
160000 kPa, x2 = 0.5021	634.07 ± 1.1	623.67 ± 1.1	613.48 ± 1.1	604.42 ± 1.1	596.12 ± 1.1
160000 kPa, x2 = 0.7308	621.39 ± 1.1	–	600.76 ± 1.1	–	582.77 ± 1.1
180000 kPa, x2 = 0.2729	654.77 ± 1.2	–	635.3 ± 1.1	–	618.69 ± 1.1
180000 kPa, x2 = 0.5021	643.46 ± 1.2	633.32 ± 1.1	623.72 ± 1.1	615.03 ± 1.1	606.9 ± 1.1
180000 kPa, x2 = 0.7308	630.95 ± 1.1	–	611.22 ± 1.1	–	593.99 ± 1.1
200000 kPa, x2 = 0.2729	663.07 ± 1.2	–	644.44 ± 1.2	–	628.49 ± 1.1
200000 kPa, x2 = 0.5021	652.2 ± 1.2	642.49 ± 1.2	632.92 ± 1.1	624.5 ± 1.1	616.83 ± 1.1
200000 kPa, x2 = 0.7308	639.82 ± 1.1	–	620.55 ± 1.1	–	604.14 ± 1.1
